Laboratory results published in patent publication US10174380B2, “Methods for predicting multiple myeloma treatment response” (INSERM (INSTITUT NATIONAL DE LA SANTE ET DE LA RECHERCHE …, priority 2012, dated 2019).
“And” between values parts separate entries of the source, which are not always exact repeats. Equal entries are not always repeated. Where two headings read alike, the source gives them in different places.

Key:
Type in all cases: cell-based, human
[1] = tested on: 5 HMCLs with the highest HA Score; experiment: Growth assay for myeloma cells (Cell Titer Glo, intracellular ATP), HMCLs with high HA Score; settings: 4 days culture, read-out: median IC50
Method: (§1) Data are mean values plus or minus standard deviation (SD) of 5 experiments determined on sextuplet culture wells.
(§2) HMCLs were cultured for 4 days in 96-well flat-bottom microtiter plates in RPMI 1640 medium, 10% FCS, 2 ng/ml IL-6 culture medium (control), with graded Panobinostat (A), VPA […] or SAHA (C) concentrations. Data are mean values plus or minus standard deviation (SD) of 5 experiments determined on sextuplet culture wells.
(§3) Cell growth was evaluated by quantifying intracellular ATP amount with a Cell Titer Glo Luminescent Assay (Promega, Madison, Wis.) with a Centro LB 960 luminometer (Berthold Technologies, Bad Wildbad, Germany).
(§4) The inventors sought to determine whether HA Score could predict for the sensitivity of 10 HMCLs to HDAC inhibitor.
(§5) The inventors sought to determine whether HA Score could predict for the sensitivity of myeloma cells to clinical grade HDAC inhibitors {Neri, 2012 #3317}.

[2] = tested on: 5 HMCLs with low HA Score; experiment: Growth assay for myeloma cells (Cell Titer Glo, intracellular ATP), HMCLs with low HA Score; settings: 4 days culture, read-out: median IC50
Method: as §1, §2, §3, §4, §5

Five HMCLs = experiment: Cell viability of the five TSA treated HMCLs (summary statement); settings: 0.33 μM TSA for 24 h
Method: (§6) The human MM cell lines XG-5, XG-6, XG-7, XG-20 and LP1 were grown in RPMI 1640 supplemented with 10% fetal bovine serum and 2 ng/mL recombinant IL-6. […] Control cells were cultured in the same conditions without TSA.
The prognostic information of HDACi regulated genes was gathered within an histone acetylation score (HA Score), which was the sum of the beta coefficients of the Cox model weighted by ±1 according to the patient MMC signal above or below the probe set maxstat value as described (34).

XG-20 = experiment: Cell viability by trypan blue exclusion; settings: 0.33 μM TSA, 24 h (Day 1), mean ± SD, 3 experiments
Method: as §6

XG-6 = experiment: Cell viability by trypan blue exclusion; settings: 0.33 μM TSA, 24 h (Day 1), mean ± SD, 3 experiments
Method: as §6

LP1 = experiment: Cell viability by trypan blue exclusion; settings: 0.33 μM TSA, 24 h (Day 1), mean ± SD, 3 experiments
Method: as §6

XG-5 = experiment: Cell viability by trypan blue exclusion; settings: 0.33 μM TSA, 24 h (Day 1), mean ± SD, 3 experiments
Method: as §6

XG-7 = experiment: Cell viability by trypan blue exclusion; settings: 0.33 μM TSA, 24 h (Day 1), mean ± SD, 3 experiments
Method: as §6

[3] = tested on: primary MMCs of patients with high HA Score; experiment: Mononuclear cell culture, CD138+ viable plasma cell count, patients with high HA Score; settings: day 4; for Myeloma cell number/culture well: individual patients with high HA Score; for Myeloma cell number/culture well, Mean: mean of 8 patients with high HA Score
Method: (§7) At day 4 of culture, the cell count and the viability were determined and the percentage of CD138^+ viable plasma cells was determined by flow cytometry. Black color represents patients with high HA Score (N=8) and white represents patients with low HA Score values (N=5).
(§8) In each culture group, viability and cell counts were assayed and MMCs were stained with an anti-CD138-PE mAb (Immunotech, Marseille, France) as previously described (35).
(§9) The characteristics of patients with MM included in this study are described in Table 3.

[4] = tested on: primary MMCs of patients with low HA Score; experiment: Mononuclear cell culture, CD138+ viable plasma cell count, patients with low HA Score; settings: day 4; for Myeloma cell number/culture well: individual patients with low HA Score; for Myeloma cell number/culture well, Mean: mean of 5 patients with low HA Score
Method: as §7, §8, §9

[5] = Homo sapiens, 96 h, IL-6 2 ng/ml

Compound `Cc1[nH]c2ccccc2c1CCNCc1ccc(/C=C/C(=O)NO)cc1` [Panobinostat, panobinostat] has an IC50 [1, 5] of 1.16 nM and an IC50 [2, 5] of 3.16 nM.

`CC(/C=C/C(=O)NO)=C\[C@@H](C)C(=O)c1ccc(N(C)C)cc1` [TSA, trichostatin A] was tested, and the “effect on myeloma cell viability” value (Five HMCLs) was “did not affect myeloma cell viability”, the IC50 ([1]; IL-6 2 ng/ml) was 11 nM and the “Cell viability (%)” value (XG-20) was 100 ± 1%. The “Cell viability (%)” value (XG-6) was 100 ± 1%, the “Cell viability (%)” value (LP1) was 100 ± 0% and the “Cell viability (%)” value (XG-5) was 70 ± 3%. The “Cell viability (%)” value (XG-7) was 100 ± 0%, the IC50 ([2]; IL-6 2 ng/ml) was 52.3 nM and the “Myeloma cell number/culture well” value ([3]; 5.1 nM TSA) was 43320 and 115520 and 72200 and 83752 and 19950 and 37544 and 48249 and 78844. For the same compound, the “Myeloma cell number/culture well, Mean” value ([3]; 5.1 nM TSA) was 62422, the “Myeloma cell number/culture well” value ([3]; 10.3 nM TSA) was 31086 and 45216 and 50868 and 25434 and 12170 and 33912 and 38249 and 41860 and the “Myeloma cell number/culture well, Mean” value ([3]; 10.3 nM TSA) was 34849. The “Myeloma cell number/culture well” value ([3]; 20.7 nM TSA) was 22880 and 20592 (2×) and 38896 and 7650 and 18304 and 29064 and 32752, the “Myeloma cell number/culture well, Mean” value ([3]; 20.7 nM TSA) was 23841 and the “Myeloma cell number/culture well” value ([3]; 41.3 nM TSA) was 7250 (2×) and 29000 and 18850 and 11600 and 1736 and 5238 and 29790. For the same compound, the “Myeloma cell number/culture well, Mean” value ([3]; 41.3 nM TSA) was 13839, the “Myeloma cell number/culture well” value ([4]; 5.1 nM TSA) was 72200 and 60648 and 14750 and 306768 and 19100 and the “Myeloma cell number/culture well, Mean” value ([4]; 5.1 nM TSA) was 94693. The “Myeloma cell number/culture well” value ([4]; 10.3 nM TSA) was 64998 and 62172 and 18486 and 254478 and 19458, the “Myeloma cell number/culture well, Mean” value ([4]; 10.3 nM TSA) was 83918 and the “Myeloma cell number/culture well” value ([4]; 20.7 nM TSA) was 54912 and 41184 and 14328 and 243978 and 18168. The “Myeloma cell number/culture well, Mean” value ([4]; 20.7 nM TSA) was 74514, the “Myeloma cell number/culture well” value ([4]; 41.3 nM TSA) was 33350 and 26100 and 12765 and 235040 and 18876 and the “Myeloma cell number/culture well, Mean” value ([4]; 41.3 nM TSA) was 65226.

For `CCCC(CCC)C(=O)O` [VPA, valproic acid], the IC50 ([1]; Homo sapiens, 96 h) was 280 nM and the IC50 ([2]; Homo sapiens, 96 h) was 430 nM.
